Reference: PubChem BioAssay AID434987 (Southern Research Specialized Biocontainment Screening …, 2010)
Calls of active or inactive are those of the source. How the calls were made is not given here.

Tested on: M. tuberculosis H37Rv growth inhibition with meropenem
Assay: dose response, H37Rv, with and without meropenem (AID 434987);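 further: growth over 7 days at 37 °C before Alamar Blue read on day 9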
[1] = M. tuberculosis H37Rv growth inhibition, measured here: IC50 without meropenem
[2] = M. tuberculosis H37Rv growth inhibition, measured here: IC90 without meropenem
[3] = measured here: IC90 with meropenem

SMILES | IC50 | IC50 [1] [µM] | IC90 [2] [µM] | IC90 [3] [µM]
Cc1ccc(CN2CCSc3ccc(C(=O)NC4CCN(Cc5ccccc5)CC4)cc32)cc1 | > 100 µM (inactive) | > 100 | > 100 | > 100
COc1cccc(NC(=O)c2cc(-c3cccnc3)nc3c(Cl)cccc23)c1 | > 100 µM (inactive) | > 100 | > 100 | > 100
COC(=O)c1cc(C)[nH]c2c(C)cc3nc4ccccc4c3c12 | > 100 µM (inactive) | > 100 | > 100 | > 100
O=C(Cn1c(=O)n(CCCC(=O)NC2CCCC2)c(=O)c2ccccc21)NCCC1=CCCCC1 | > 100 µM (inactive) | > 100 | > 100 | > 100
Cc1c2c(nc3c(C(=O)NC4CCCC4)cnn13)CCCC2 | 73.4 µM (inactive) | > 100 | > 100 | > 100
O=C(Nc1ccccc1)c1c2c(nc3ccccc13)CCCC2 | 17.1 µM | > 100 | > 100 | > 25
COc1ccc(-c2cc(C(F)F)nc(-n3nc(C)cc3C)n2)cc1 | 24.3 µM (inactive) | 47.4 | > 100 | 54.1
COc1cc2nc(N3CCN(C(=O)OCc4ccccc4)[C@H](C(=O)NC(C)(C)C)C3)nc(N)c2cc1OC | 64.5 µM (inactive) | 65 | 92.7 | 84
CCN1C(=O)[C@@H]2[C@@H](c3ccc(-c4ccc(Cl)c(Cl)c4)c(OC)c3)N3CCC[C@@]3(C(=O)OC)[C@@H]2C1=O | > 100 µM (inactive) | > 100 | > 100 | > 100
O=C(OCC(=O)c1ccc[nH]1)C1=COCCO1 | 18.3 µM | 88.8 | > 100 | > 100
C=CCSc1nccc(-c2nn(-c3ccc(C)cc3)ccc2=O)n1 | 94.1 µM (inactive) | > 100 | > 100 | > 100
Cc1ccnn1CC(=O)N/N=C/c1ccc([N+](=O)[O-])s1 | 91.5 µM (inactive) | 88.5 | 95.9 | > 100
O=S1(=O)CCO[C@H]2Cc3ccccc3[C@H]2N1Cc1ccc(Cl)cc1 | > 100 µM (inactive) | > 100 | > 100 | > 100
CC1CC1C(=O)Nc1nc(-c2cccs2)c(-c2cccs2)s1 (stereo not given) | 94.3 µM (inactive) | > 100 | > 100 | > 100
Cc1ccc(C(=O)Nc2c(C)cc(C)c3cccnc23)cc1 | 2.39 µM | 10.3 | > 50 | 10.5
CCOC(=O)c1sc2ccccc2c1NC(=O)c1coc2ccccc2c1=O | > 100 µM (inactive) | > 100 | > 100 | > 100
Cc1[nH]c2c(C)cccc2c1CCNC(=O)c1ccc2c(c1[N+](=O)[O-])C(=O)c1ccccc1C2=O | > 100 µM (inactive) | > 100 | > 100 | > 100
Cc1ccccc1C(=O)Oc1ccccc1N1C(=O)C2CC=CCC2C1=O (stereo not given) | > 100 µM (inactive) | > 100 | > 100 | > 100
O=C(Nc1nc2ccccc2n1CCN1CCCC1)C1CCCCC1 | 8.68 µM | 23.9 | 47.2 | 27.5
Cc1ccc(-c2nc3[nH]c(=O)cc(NC(=O)C(C)C)n3n2)cc1 | 7.36 µM | > 100 | > 100 | > 12.5

SMILES | IC50 | IC50 [1] [µM] | IC90 [2] [µM] | IC90 [3] [µM]
COc1ccc(Cl)cc1NC(=O)CN(C)C(=O)c1ccc(N2CCCCCC2)c([N+](=O)[O-])c1 | > 100 µM (inactive) | > 100 | > 100 | > 100
Cc1cc(C)c2c(N)c(S(=O)c3ccc(C(C)(C)C)cc3)sc2n1 (stereo not given) | > 100 µM (inactive) | > 100 | > 100 | > 100
CCOc1ccc(-c2nnc(SCC(=O)N3CCOCC3)o2)cc1 | > 100 µM (inactive) | > 100 | > 100 | > 100
CC(=O)Nc1ccc(C(=O)N(C2=NC(C)CS2)c2ccc(Cl)cc2)cc1 (stereo not given) | 29.8 µM (inactive) | 44.1 | > 100 | > 100
COc1ccc(S(=O)(=O)N(C(=O)c2ccncc2)c2ccc3oc4c(c3c2)CCCC4)cc1 | 99 µM (inactive) | 94.7 | > 100 | > 100
Cc1cc(F)ccc1NCC(=O)Nc1ccc(Br)cc1C | 94.2 µM (inactive) | 98.2 | > 100 | > 100
O=C(Nc1ccc([N+](=O)[O-])cc1)c1cc2ccccc2nc1Cl | > 100 µM (inactive) | > 100 | > 100 | > 100
O=c1oc(CCCO)cc2ccc(C#Cc3ccsc3)cc12 | > 100 µM (inactive) | > 100 | > 100 | > 100
CCOC(=O)Cn1nc(-c2ccc(C)cc2)c2ccccc2c1=O | 17.5 µM | > 100 | > 100 | > 50
CCN(CC(=O)Nc1ccccc1OC)C(=O)c1cc(S(=O)(=O)N2CCCCCC2)ccc1OC | > 100 µM (inactive) | > 100 | > 100 | > 100
Cc1cccc2c(C(=O)n3cccn3)cc(-c3ccccc3Cl)nc12 | 7.95 µM | 52.7 | > 100 | 26.8
COc1ccc(C(=O)Nc2oc(-c3ccccc3)c(-c3ccccc3)c2C#N)cc1OC | 25.2 µM (inactive) | 38.7 | > 100 | > 100
C/C(=N\NC(=O)c1ccccc1O)c1ccc(Br)s1 | > 100 µM (inactive) | > 100 | > 100 | > 100
O=C(N/N=C/c1ccc(OC(=O)c2ccc3c(c2)OCO3)cc1)c1cncc(Br)c1 | 5.48 µM | 45.7 | > 100 | 48.3
COc1cc(NC(=O)c2cc(-c3cccnc3)nc3ccc(Br)cc23)cc(OC)c1 | > 100 µM (inactive) | > 100 | > 100 | > 100
CCCOc1ccc(C(=O)N/N=C/c2ccc(-c3ccc(S(=O)(=O)Nc4ncccn4)cc3)o2)cc1 | 22.4 µM (inactive) | 39.8 | > 100 | 26.1
N#Cc1ccc(C23CC4(C2)[C@H](CN(Cc2cccnc2)[C@@H]4c2ccccc2)C3c2ccccc2)cc1 (stereo not given in full) | 56.2 µM (inactive) | 72.8 | > 100 | > 100
O=C(N/N=C/c1cccc(NC(=O)c2ccc(Cl)cc2)c1)c1cccc(O)c1 | > 100 µM (inactive) | > 100 | > 100 | > 100
Cc1ccc(NC(=S)Nc2ncccc2C)c(C)c1 | 46.2 µM (inactive) | 97.1 | > 100 | > 100
COC(=O)c1c(NC(=O)c2ccc(C)cc2)csc1C | 48.9 µM (inactive) | 84 | > 100 | > 100
